# Reference: patent publication US20240246966A1, “NEW PYRAZOLO[1,5-a] PYRIMIDINE DERIVATIVES AS SIGMA LIGANDS” (ACONDICIONAMIENTO TARRASENSE, priority 2021, published 2024)
# What was measured:
# [1] = target: T1, Human σ1 Receptor (Homo sapiens, UniProt Q99720); assay: Human σ1 receptor radioligand assay ([3H](+)-pentazocine, transfected HEK-293 membranes); details: human σ1, [3H](+)-pentazocine 5 nM, binding expressed as Ki, read-out: Binding σ-1
# T1 construct: expressed in transfected cells; host or cells: HEK-293
# Method: Human σ1 Receptor Radioligand Assay
# Transfected HEK-293 membranes (7 μg) were incubated with 5 nM of [^3H](+)-pentazocine in assay buffer containing Tris-HCl 50 mM at pH 8. NBS (non-specific binding) was measured by adding 10 μM haloperidol. The binding of the test compound was measured at either one concentration (% inhibition at 1 or 10 μM) or five different concentrations to determine affinity values (Ki). Plates were incubated at 37° C. for 120 minutes. After the incubation period, the reaction mix was then transferred to MultiScreen HTS, FC plates (Millipore), filtered and plates were washed 3 times with ice-cold 10 mM Tris-HCL (pH 7.4). Filters were dried and counted at approximately 40% efficiency in a MicroBeta scintillation counter (Perkin-Elmer) using EcoScint liquid scintillation cocktail.
# [2] = target: T2, Human σ2/TMEM97 receptor (Homo sapiens, UniProt Q5BJF2); assay: Binding assay to human σ2/TMEM97 receptor ([3H]-DTG, transfected HEK-293 membranes); details: human σ2/TMEM97, [3H]-DTG 10 nM, binding expressed as Ki, read-out: Binding σ-2
# T2 construct: expressed in transfected cells; host or cells: HEK-293
# Method: Binding Assay to Human ρ2/TMEM97 Receptor
# Transfected HEK-293 membranes (15 μg) were incubated with 10 nM [^3H]-1,3-Di-o-tolylguanidine ( DTG) in assay buffer containing Tris-HCl 50 mM at pH 8.0. NSB (non-specific binding) was measured by adding 10 μM haloperidol. The binding of the test compound was measured at either one concentration (% inhibition at 1 or 10 μM) or five different concentrations to determine affinity values (Ki). Plates were incubated at 25° C. for 120 minutes. After the incubation period, the reaction mix was transferred to MultiScreen HTS, FC plates (Millipore), filtered and washed 3 times with ice-cold 10 mM Tris-HCL (pH 8.0). Filters were dried and counted at approximately 40% efficiency in a MicroBeta scintillation counter (Perkin-Elmer) using EcoScint liquid scintillation cocktail.
# T2 sequence (Q5BJF2 whole entry): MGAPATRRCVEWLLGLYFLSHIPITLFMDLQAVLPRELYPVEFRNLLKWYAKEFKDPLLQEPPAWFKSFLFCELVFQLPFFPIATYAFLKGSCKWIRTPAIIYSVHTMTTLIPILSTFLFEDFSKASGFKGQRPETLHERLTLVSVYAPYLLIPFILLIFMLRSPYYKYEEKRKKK
# T1 sequence (Q99720 whole entry): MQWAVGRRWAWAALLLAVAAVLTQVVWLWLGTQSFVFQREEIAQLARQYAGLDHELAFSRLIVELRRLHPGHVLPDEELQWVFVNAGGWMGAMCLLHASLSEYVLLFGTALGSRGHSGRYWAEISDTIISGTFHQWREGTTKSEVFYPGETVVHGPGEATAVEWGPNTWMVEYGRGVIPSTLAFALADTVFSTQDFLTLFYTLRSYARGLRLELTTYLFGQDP
Structure (SMILES),Ki [1] [nM],Ki [2] [nM]
"FC(F)(F)c1cc(-c2cnn3cc(CN4CC5(CCOCC5)C4)cnc23)ccn1 [Example 33, 2-((3-(2-(Trifluoromethyl)pyridin-4-yl)pyrazolo[1,5-a]pyrimidin-6-yl)methyl)-7-oxa-2-azaspiro[3.5]nonane]",< 100,> 1000
"COC1CCN(Cc2cnc3c(-c4ccnc(C(F)(F)F)c4)cnn3c2)CC1 [Example 34, 6-((4-Methoxypiperidin-1-yl)methyl)-3-(2-(trifluoromethyl)pyridin-4-yl)pyrazolo[1,5-a]pyrimidine]",< 100,> 1000
"FC(F)(F)c1cc(-c2cnn3cc(CN4CCN(C5COC5)CC4)cnc23)ccn1 [Example 35, 6-((4-(Oxetan-3-yl)piperazin-1-yl)methyl)-3-(2-(trifluoromethyl)pyridin-4-yl)pyrazolo[1,5-a]pyrimidine]",500 to 1000,> 1000
"OC1CCN(Cc2cnc3c(-c4ccnc(C(F)(F)F)c4)cnn3c2)CC1 [Example 36, 1-((3-(2-(Trifluoromethyl)pyridin-4-yl)pyrazolo[1,5-a]pyrimidin-6-yl)methyl)piperidin-4-ol]",< 100,> 1000
"Cc1nc2c(-c3ccnc(C(F)(F)F)c3)cnn2c(C)c1CN1CCC2(CC1)COC2 [Example 37, 7-((5,7-Dimethyl-3-(2-(trifluoromethyl)pyridin-4-yl)pyrazolo[1,5-a]pyrimidin-6-yl)methyl)-2-oxa-7-azaspiro[3.5]nonane]",< 100,500 to 1000
"FC(F)(F)c1cc(-n2ccc3cc(CN4CCC5(CC4)COC5)cnc32)ccn1 [Example 38, 7-((1-(2-(Trifluoromethyl)pyridin-4-yl)-1H-pyrrolo[2,3-b]pyridin-5-yl)methyl)-2-oxa-7-azaspiro[3.5]nonane]",< 100,100 to 500
"COCC1CCN(Cc2cnc3c(ccn3-c3ccnc(C(F)(F)F)c3)c2)CC1 [Example 39, 5-((4-(Methoxymethyl)piperidin-1-yl)methyl)-1-(2-(trifluoromethyl)pyridin-4-yl)-1H-pyrrolo[2,3-b]pyridine]",< 100,100 to 500
"CCOCC1CCN(Cc2cnc3c(ccn3-c3ccnc(C(F)(F)F)c3)c2)CC1 [Example 40, 5-((4-(Ethoxymethyl)piperidin-1-yl)methyl)-1-(2-(trifluoromethyl)pyridin-4-yl)-1H-pyrrolo[2,3-b]pyridine]",< 100,100 to 500
"COCC1CCN(Cc2cnc3c(ccn3-c3ccc(C(F)(F)F)nc3)c2)CC1 [Example 41, 5-((4-(Methoxymethyl)piperidin-1-yl)methyl)-1-(6-(trifluoromethyl)pyridin-3-yl)-1H-pyrrolo[2,3-b]pyridine]",< 100,100 to 500
"FC(F)(F)c1ccc(-n2ccc3cc(CN4CCC5(CC4)COC5)cnc32)cn1 [Example 42, 7-((1-(6-(Trifluoromethyl)pyridin-3-yl)-1H-pyrrolo[2,3-b]pyridin-5-yl)methyl)-2-oxa-7-azaspiro[3.5]nonane]",< 100,100 to 500
"FC(F)(F)c1cc(-n2ccc3cc(CN4CCC5(CCOC5)CC4)cnc32)ccn1 [Example 43, 8-((1-(2-(Trifluoromethyl)pyridin-4-yl)-1H-pyrrolo[2,3-b]pyridin-5-yl)methyl)-2-oxa-8-azaspiro[4.5]decane]",< 100,100 to 500
"COCC1CCN(Cc2cnc3c(ccn3-c3cccnc3C(F)(F)F)c2)CC1 [Example 44, 5-((4-(Methoxymethyl)piperidin-1-yl)methyl)-1-(2-(trifluoromethyl)pyridin-3-yl)-1H-pyrrolo[2,3-b]pyridine]",< 100,100 to 500

# Next, values leading:
Ki [1] [nM],Ki [2] [nM],Structure (SMILES)
< 100,100 to 500,"FC(F)(F)c1ncccc1-n1ccc2cc(CN3CCC4(CCOCC4)CC3)cnc21 [Example 45, 9-((1-(2-(Trifluoromethyl)pyridin-3-yl)-1H-pyrrolo[2,3-b]pyridin-5-yl)methyl)-3-oxa-9-azaspiro[5.5]undecane]"
< 100,< 100,"FC(F)(F)c1cc(-n2ccc3cc(CN4CCC5(CCOCC5)CC4)cnc32)ccn1 [Example 46, 9-((1-(2-(Trifluoromethyl)pyridin-4-yl)-1H-pyrrolo[2,3-b]pyridin-5-yl)methyl)-3-oxa-9-azaspiro[5.5]undecane]"
< 100,< 100,"FC(F)(F)c1cc(-n2ccc3cc(CN4CC5(CCOCC5)C4)cnc32)ccn1 [Example 47, 2-((1-(2-(Trifluoromethyl)53yridine-4-yl)-1H-pyrrolo[2,3-b]53yridine-5-yl)methyl)-7-oxa-2-azaspiro[3.5]nonane]"
< 100,100 to 500,"FC(F)(F)c1ccc(-n2ccc3cc(CN4CCC5(CCOCC5)CC4)cnc32)cn1 [Example 48, 9-((1-(6-(Trifluoromethyl)pyridin-3-yl)-1H-pyrrolo[2,3-b]pyridin-5-yl)methyl)-3-oxa-9-azaspiro[5.5]undecane]"
< 100,500 to 1000,"COC1CCN(Cc2cnc3c(ccn3-c3ccnc(C(F)(F)F)c3)c2)CC1 [Example 49, 5-((4-Methoxypiperidin-1-yl)methyl)-1-(2-(trifluoromethyl)pyridin-4-yl)-1H-pyrrolo[2,3-b]pyridine]"
< 100,> 1000,"FC(F)(F)c1cc(-n2ccc3cc(CN4CCCOCC4)cnc32)ccn1 [Example 50, 4-((1-(2-(Trifluoromethyl)pyridin-4-yl)-1H-pyrrolo[2,3-b]pyridin-5-yl)methyl)-1,4-oxazepane]"
< 100,500 to 1000,"COC1CCN(Cc2cnc3c(ccn3-c3ccc(C(F)(F)F)nc3)c2)CC1 [Example 51, 5-((4-Methoxypiperidin-1-yl)methyl)-1-(6-(trifluoromethyl)pyridin-3-yl)-1H-pyrrolo[2,3-b]pyridine]"
< 100,500 to 1000,"FC(F)(F)c1ccc(-n2ccc3cc(CN4CCCOCC4)cnc32)cn1 [Example 52, 4-((1-(6-(Trifluoromethyl)pyridin-3-yl)-1H-pyrrolo[2,3-b]pyridin-5-yl)methyl)-1,4-oxazepane]"
< 100,500 to 1000,"N#Cc1ncccc1-n1ccc2cc(CN3CCC4(CCOCC4)CC3)cnc21 [Example 53, 3-(5-((3-Oxa-9-azaspiro[5.5]undecan-9-yl)methyl)-1H-pyrrolo[2,3-b]pyridin-1-yl) picolinonitrile]"
< 100,500 to 1000,"FC(F)(F)c1ncccc1-n1ccc2cc(CN3CCC4(CCOC4)CC3)cnc21 [Example 54, 8-((1-(2-(Trifluoromethyl)pyridin-3-yl)-1H-pyrrolo[2,3-b]pyridin-5-yl)methyl)-2-oxa-8-azaspiro[4.5]decane]"
< 100,100 to 500,"FC(F)(F)c1ccc(-n2ccc3cc(CN4CC5(CCOCC5)C4)cnc32)cn1 [Example 55, 2-((1-(6-(Trifluoromethyl)pyridin-3-yl)-1H-pyrrolo[2,3-b]pyridin-5-yl)methyl)-7-oxa-2-azaspiro[3.5]nonane]"
< 100,> 1000,"FC(F)(F)c1ncccc1-n1ccc2cc(CN3CC4(CCOCC4)C3)cnc21 [Example 56, 2-((1-(2-(Trifluoromethyl)pyridin-3-yl)-1H-pyrrolo[2,3-b]pyridin-5-yl)methyl)-7-oxa-2-azaspiro[3.5]nonane]"
